Measurements taken from patent publication US9982005B2, “Macrolides and methods of their preparation and use” (President and Fellows of Harvard College, priority 2013, dated 2018).
In brackets after ≈: the same amount, converted by molar mass. Where two headings read alike, the source gives them in different places.

Tests used:
Format in all cases: cell-based
[1] = system: SA101 S. aureus ATCC29213; experiment: broth dilution MIC, S. aureus SA101
Text: (§1) We have collected MIC data for a total of 50 novel macrolides that this platform has produced against over 21 unique strains of B. subtilis, E. coli, S. aureus, S. pneumoniae, and H. influenzae, including several multidrug-resistant strains, with a special focus on macrolide resistant mechanisms (vide supra). Azithromycin was included as a control macrolide. CLSI standard procedures for broth dilution MIC determination were used. […] These genotypes can be constitutive or inducible. The finding that C4-epi (unnatural) isomers of the “azaketolide” macrolide class have enhanced activities relative to C4 natural isomers is very exciting.

[2] = system: EC107 E. coli ATCC25922; experiment: broth dilution MIC, E. coli EC107
Text: as §1

[3] = system: EC878 E. coli tolC; experiment: broth dilution MIC, E. coli EC878
Text: as §1

[4] = system: EC882 E. coli imp; experiment: broth dilution MIC, E. coli EC882
Text: as §1

[5] = system: BS1723 B. subtilis BS168 WT wild type; experiment: broth dilution MIC, B. subtilis BS1723; conditions: BS1723 B. subtilis BS168 WT wild type
Text: as §1

[6] = system: BS1725 B. subtilis ermC; experiment: broth dilution MIC, B. subtilis BS1725
Text: as §1

[7] = Staphylococcus aureus, ATCC29213, SA101 S. aureus ATCC29213, read-out: MIC
[8] = Escherichia coli, read-out: MIC
[9] = Bacillus subtilis, read-out: MIC
[10] = Bacillus subtilis, BS1725 B. subtilis ermC (+ery)
[11] = Bacillus subtilis, BS1725 B. subtilis ermC (−ery)

Structure (SMILES)	MIC [1, 7] [µg/mL]	MIC [2, 8] [µg/mL]	MIC ([3]; Escherichia coli) [µg/mL]	MIC ([4]; Escherichia coli) [µg/mL]	MIC [5, 9] [µg/mL]	MIC [6, 10] [µg/mL]	MIC [6, 11] [µg/mL]	MIC ([1]; SA101 S. aureus ATCC29213) [µg/mL]	MIC [2] [µg/mL]	MIC [3] [µg/mL]	MIC [4] [µg/mL]	MIC [5] [µg/mL]	MIC ([6]; BS1725 B. subtilis ermC (+ery)) [µg/mL]	MIC ([6]; BS1725 B. subtilis ermC (−ery)) [µg/mL]
CC[C@H]1OC(=O)[C@H](C)C(=O)C[C@@H](O[C@@H]2OC(C)CC(N(C)C)C2O)[C@](C)(OC)C[C@@H](C)CN[C@H](C)[C@H]2N(CCCCn3cc(-c4nccs4)nn3)C(=O)O[C@]12C (stereo partly drawn) [FSM-10787]	> 32	32 (≈ 39.7 µM)	2 (≈ 2.48 µM)	0.125 (≈ 0.155 µM)	> 32	> 32	> 32	–	–	–	–	–	–	–
CC[C@H]1OC(=O)[C@H](C)C(=O)C[C@@H](O[C@@H]2OC(C)CC(N(C)C)C2O)[C@](C)(OC)C[C@@H](C)CN[C@H](C)[C@H]2N(CCCCn3cc(-c4nc5ccccc5s4)nn3)C(=O)O[C@]12C (stereo partly drawn) [FSM-10788]	> 32	> 32	1 (≈ 1.17 µM)	0.0625 (≈ 0.073 µM)	> 32	> 32	> 32	–	–	–	–	–	–	–
CC[C@H]1OC(=O)[C@H](C)C(=O)C[C@@H](O[C@@H]2OC(C)CC(N(C)C)C2O)[C@](C)(OC)C[C@@H](C)CN(C(C)=O)[C@H](C)[C@H]2N(CCCCN=[N+]=[N-])C(=O)O[C@]12C (stereo partly drawn) [FSM-10789]	> 32	> 32	4 (≈ 5.41 µM)	8 (≈ 10.8 µM)	> 32	> 32	> 32	–	–	–	–	–	–	–
CC[C@H]1OC(=O)[C@H](C)C(=O)C[C@@H](O[C@@H]2OC(C)CC(N(C)C)C2O)[C@](C)(OC)C[C@@H](C)CN(C(C)=O)[C@H](C)[C@H]2N(CCCCn3cc(-c4nccs4)nn3)C(=O)O[C@]12C (stereo partly drawn) [FSM-10790]	> 32	> 32	4 (≈ 4.72 µM)	1 (≈ 1.18 µM)	> 32	> 32	> 32	–	–	–	–	–	–	–
CC[C@H]1OC(=O)[C@H](C)C(=O)C[C@@H](O[C@@H]2OC(C)CC(N(C)C)C2O)[C@](C)(OC)C[C@@H](C)CN(C(C)=O)[C@H](C)[C@H]2N(CCCCn3cc(-c4nc5ccccc5s4)nn3)C(=O)O[C@]12C (stereo partly drawn) [FSM-10791]	> 32	> 32	2 (≈ 2.23 µM)	0.5 (≈ 0.557 µM)	> 32	> 32	> 32	–	–	–	–	–	–	–
CC[C@H]1OC(=O)[C@H](C)C(=O)C[C@@H](O[C@@H]2OC(C)CC(N(C)C)C2O)[C@](C)(OC)C[C@@H](C)CN(C(C)=O)[C@H](C)[C@H]2N(CCCCn3cc(-c4ccccn4)nn3)C(=O)O[C@]12C (stereo partly drawn) [FSM-10792]	> 32	> 32	4 (≈ 4.75 µM)	1 (≈ 1.19 µM)	> 32	> 32	> 32	–	–	–	–	–	–	–
CC[C@H]1OC(=O)[C@H](C)C(=O)C[C@@H](O[C@@H]2OC(C)CC(N(C)C)C2O)[C@](C)(OC)C[C@@H](C)CN(C(C)=O)[C@H](C)[C@H]2N(CCCCn3cc(-c4cccnn4)nn3)C(=O)O[C@]12C (stereo partly drawn) [FSM-10794]	> 32	> 32	8 (≈ 9.49 µM)	16 (≈ 19 µM)	> 32	> 32	> 32	–	–	–	–	–	–	–
CC[C@H]1OC(=O)C(C)(F)C(=O)[C@@H](C)[C@@H](O[C@@H]2OC(C)CC(N(C)C)C2O)[C@](C)(OC)C[C@@H](C)CN(C)[C@H](C)[C@H]2N(CCCCn3cc(-c4nccs4)nn3)C(=O)O[C@]12C (stereo partly drawn) [FSM-20717]	–	–	–	–	–	–	–	16 (≈ 18.8 µM)	>32	1 (≈ 1.17 µM)	1 (≈ 1.17 µM)	16 (≈ 18.8 µM)	>32	8 (≈ 9.39 µM)
CC[C@H]1OC(=O)C(C)(F)C(=O)[C@@H](C)[C@@H](O[C@@H]2OC(C)CC(N(C)C)C2O)[C@](C)(OC)C[C@@H](C)CN[C@H](C)[C@H]2N(CCCCn3cc(-c4nc5ccccc5s4)nn3)C(=O)O[C@]12C (stereo partly drawn) [FSM-20722]	8 (≈ 9.01 µM)	> 32	1 (≈ 1.13 µM)	0.5 (≈ 0.563 µM)	16 (≈ 18 µM)	> 32	–	–	–	–	–	–	–	–
CC[C@H]1OC(=O)[C@H](C)C(=O)[C@H](C)[C@@H](O[C@@H]2OC(C)CC(N(C)C)C2O)[C@](C)(OC)C[C@@H](C)CN(C(C)=O)[C@H](C)[C@H]2N(CCCCn3cc(-c4nccs4)nn3)C(=O)O[C@]12C (stereo partly drawn) [FSM-20763]	16 (≈ 18.6 µM)	> 32	4 (≈ 4.64 µM)	2 (≈ 2.32 µM)	16 (≈ 18.6 µM)	> 32	–	–	–	–	–	–	–	–
CC[C@H]1OC(=O)[C@H](C)C(=O)[C@H](C)[C@@H](O[C@@H]2OC(C)CC(N(C)C)C2O)[C@](C)(OC)C[C@@H](C)CN(C(C)=O)[C@H](C)[C@H]2N(CCCCn3cc(-c4ccccn4)nn3)C(=O)O[C@]12C (stereo partly drawn) [FSM-20766]	16 (≈ 18.7 µM)	> 32	4 (≈ 4.67 µM)	1 (≈ 1.17 µM)	32 (≈ 37.4 µM)	> 32	–	–	–	–	–	–	–	–
CC[C@H]1OC(=O)[C@H](C)C(=O)C[C@@H](O[C@@H]2OC(C)CC(N(C)C)C2O)[C@@](C)(OC)C[C@@H](C)CN[C@H](C)[C@H]2N(CCCCn3cc(-c4nccs4)nn3)C(=O)O[C@]12C (stereo partly drawn) [FSM-30501]	> 32	> 32	> 32	> 32	> 32	> 32	> 32	–	–	–	–	–	–	–
CC[C@H]1OC(=O)[C@H](C)C(=O)C[C@@H](O[C@@H]2OC(C)CC(N(C)C)C2O)[C@@](C)(OC)C[C@@H](C)CN(C(C)=O)[C@H](C)[C@H]2N(CCCCn3cc(-c4nccs4)nn3)C(=O)O[C@]12C (stereo partly drawn) [FSM-30503]	> 32	> 32	> 32	> 32	> 32	> 32	> 32	–	–	–	–	–	–	–
CC[C@H]1OC(=O)[C@H](C)C(=O)C[C@@H](O[C@@H]2OC(C)CC(N(C)C)C2O)[C@@](C)(OC)C[C@@H](C)CN[C@H](C)[C@H]2N(CCCCn3cc(-c4cccnn4)nn3)C(=O)O[C@]12C (stereo partly drawn) [FSM-30506]	> 32	> 32	> 32	> 32	> 32	> 32	> 32	–	–	–	–	–	–	–
CC[C@H]1OC(=O)[C@H](C)C(=O)C[C@@H](O[C@@H]2OC(C)CC(N(C)C)C2O)[C@@](C)(OC)C[C@@H](C)CN(C(C)=O)[C@H](C)[C@H]2N(CCCCn3cc(-c4cccc(N)c4)nn3)C(=O)O[C@]12C (stereo partly drawn) [FSM-30512]	> 32	> 32	> 32	> 32	> 32	> 32	> 32	–	–	–	–	–	–	–
CC[C@H]1OC(=O)[C@H](C)C(=O)C[C@@H](O[C@@H]2OC(C)CC(N(C)C)C2O)[C@@](C)(OC)C[C@@H](C)CN(C(C)=O)[C@H](C)[C@H]2N(CCCCn3cc(-c4cccnn4)nn3)C(=O)O[C@]12C (stereo partly drawn) [FSM-30513]	> 32	> 32	> 32	> 32	> 32	> 32	> 32	–	–	–	–	–	–	–
CC[C@H]1OC(=O)[C@H](C)C(=O)C[C@@H](O[C@@H]2OC(C)CC(N(C)C)C2O)[C@@](C)(OC)C[C@@H](C)CN(C(C)=O)[C@H](C)[C@H]2N(CCCCn3cc(-c4nc5ccccc5s4)nn3)C(=O)O[C@]12C (stereo partly drawn) [FSM-30514]	> 32	> 32	> 32	> 32	> 32	> 32	> 32	–	–	–	–	–	–	–
CC[C@H]1OC(=O)[C@H](C)C(=O)C[C@@H](O[C@@H]2OC(C)CC(N(C)C)C2O)[C@@](C)(OC)C[C@@H](C)CN(C(C)=O)[C@H](C)[C@H]2N(CCCCn3cc(-c4ccccn4)nn3)C(=O)O[C@]12C (stereo partly drawn) [FSM-30515]	> 32	> 32	> 32	> 32	> 32	> 32	> 32	–	–	–	–	–	–	–
